From patent US20220281931A1, “CHEMICALLY INDUCIBLE POLYPEPTIDE POLYMERIZATION” (Dana-Farber Cancer Institute, Inc., priority 2019, published 2022)

Legend:
[1] = target: T1, BCL6^5-360 (Homo sapiens, UniProt P41182); test: Size-exclusion chromatography of purified recombinant BCL6; format: biochemical; settings: purified BCL6^5-360, 2 μM compound
T1 construct: size-exclusion chromatogram of purified BCL6^5-360 in the presence of DMSO; made in house; host or cells: Trichoplusia ni High Five insect cells, baculovirus
Text: The human wild-type and mutant versions of BCL6 (residue 5-129 or 5-360) and SIAH1 variants (residue 90-282 (substrate binding domain, SBD) or full length), were cloned in pAC-derived vectors. Baculovirus for protein expression (Invitrogen) was generated by transfection into Spodoptera frugiperda (Sf9) cells at a density of 0.9×10^6 cells/mL grown in ESF 921 media (Expression Systems), followed by three rounds of infection in Sf9 cells to increase viral titer. Recombinant proteins were expressed and purified as N-terminal His6 C-terminal Spy (wild-type and mutant versions of BCL6^5-360), N-terminal Strep II-Avi (BCL6^5-129, BCL6^5-360, and SIAH1^SBD), and N-terminal Flag (SIAH1^FL) fusions in Trichoplusiani High Five insect cells using the baculovirus expression system (Invitrogen).

[2] = target: T2, BCL6-eGFP fusion construct (Homo sapiens, UniProt P41182); test: Live cell imaging of BCL6-eGFP foci in HEK293T cells; format: cell-based; settings: HEK293T cells, full length BCL6 and eGFPBCL6^1-275, 1 μM
T2 construct: expressed in transfected cells; host or cells: HEK293TCas9 cells, lentiviral transduction (Cilantro2 vector)
Method: 1×10^3 HEK293T cells per cm^2 were seeded in a μ-Slide 8 Well chamber (ibidi) and cultured for 18-24 h under standard growth conditions. Cell culture medium was exchanged to CO2 independent media (Gibco) and imaged with the DeltaVision Ultra High-Resolution Microscope (GE Healthcare, 100×lens, oil refraction index=1.520). The following acquisition parameters were used: Image size […], binning 1×1, GFP exposure time 0.08 sec. and the Neutral Density (% T) filter 32%. To capture foci within all cell volume, around 26μm per cell was imaged every 0.4-0.5 μm. Images were deconvolved (10 cycles, conservative conditions) and projected using maximal intensity by softWoRx® 7.0.0. Images for movies were taken every 10 minutes and combined to a movie by QuickTime.

[3] = target: T3, Nano-LuciferaseSIAH1^C44S and HaloTagBCL6 (Homo sapiens, UniProt P41182); test: NanoBRET BCL6-SIAH1 interaction in HEK293T cells; format: cell-based; settings: 1 μM, 2 hours
T3 construct: expressed in transfected cells; host or cells: HEK293T cells, transient transfection
Method: Bioluminescence resonance energy transfer (BRET) experiments were performed using a NanoBRET PPI starter kit (Promega N1821) according to the manufacturer's instructions and as previously described (Sperling, A. S. et al. Patterns of substrate affinity, competition, and degradation kinetics underlie biological activity of thalidomide analogs. Blood 134, 160-170, doi:10.1182/blood.2019000789 (2019)).

[4] = tested on: BCL6 mRNA; test: Quantitative PCR of BCL6 mRNA; format: cell-based, human; settings: SuDHL4Cas9 cells, 1 μM, 1 hour
Method: 1×10^6 SuDHL4Cas99 cells were treated with DMSO or 1 μM BI-3802 for 1 h, collected by centrifugation, washed with PBS, and flash frozen in dry ice. mRNA was isolated using the QIAGEN RNA kit (Qiagen, 74106). For cDNA synthesis, total RNA was reverse transcribed with SuperScript™ VILO™ Master Mix (Invitrogen, 11755050) before qPCR analysis with TaqMan Fast Advanced Master Mix (ThermoFisher Scientific, 4444557) for BCL6 (TaqMan, […], Life Technologies) and GAPDH (TaqMan, Hs02758991_g1). Reactions were run and analyzed on QStudio 6 FLX real-Time PCR System (ThermoFisher Scientific).

[5] = target: T1, BCL6^5-360; test: Negative stain electron microscopy of BCL6; format: biochemical; settings: BCL6^5-360, 2 μM or 20 μM BI-3802
Method: The incubated protein samples were rapidly diluted to 10 μg/mL (sample treated with DMSO) or 50 μg/ml (samples treated with BI-3802). A 5 μL aliquot was applied to glow-discharged 400-mesh carbon-coated nickel grids (CF400-NI-UL, Electron Microscopy Sciences). After incubating for 1 min, protein was wicked off with a filter paper and the grid was washed twice with distilled water, followed by two rounds of staining with 2% uranyl acetate for 5 s and 20 s, respectively. Grids were imaged at a nominal magnification of 40,000× on a JEOL JEM-1400Plus operated at 80 kV.

[6] = target: T4, eGFPBCL6 stability reporter (Homo sapiens, UniProt P41182); test: Degradation of BCL6 reporter constructs in HEK293T cells (flow cytometry); format: cell-based; settings: HEK293T cells, 1 μM, 1 hour
T4 construct: the full length BCL6 (BCL6^FL) was fused in-frame with eGFP; expressed in transfected cells; host or cells: HEK293TCas9 cells, lentiviral transduction (Artichoke vector)
Method: Lentivirus was packaged in HEK293T cells using TransIT (Mirus) and subsequently used for spin infection.
HEK293TCas9 cells expressing indicated constructs in “Artichoke” or “Cilantro2” stability reporter vectors (PGK or SFFV Target-eGFP-IRES-mCherry, puromycin resistance) were plated in 96 well plates and treated for indicated times. BCL6-eGFP and mCherry expression were quantified by flow cytometry (CytoFLEX, Beckman or LSR Fortessa flow cytometer BD Biosciences). All degradation assays were done in at least triplicates. Geometric means of eGFP and mCherry fluorescent signals for live and mCherry positive cells were exported using flow cytometry analysis software (FlowJo, BD). Ratios of eGFP to mCherry were normalized to the average of DMSO-treated controls.

CNC(=O)COc1cc2cc(Nc3nc(N4C[C@H](C)C[C@H](C)C4)ncc3Cl)ccc2n(C)c1=O [BI-3802, 2-((6-((5-chloro-2-((3S,5R)-3,5-dimethylpiperidin-1-yl)pyrimidin-4-yl)amino)-1-methyl-2-oxo-1,2-dihydroquinolin-3-yl)oxy)-N-methylacetamide]
higher molecular weight species of recombinant BCL6 [1]: led to higher molecular weight species of BCL6 | eGFP-containing BCL6 foci formation [2]: appearance of distinct eGFP-containing foci was observed within minutes | effect on the BCL6-SIAH1 interaction in cells (mBRET signal) [3]: increased the interaction between BCL6 and SIAH1 | BCL6 mRNA expression [4]: did not alter BCL6 mRNA expression | higher-order BCL6 structures by negative stain EM [5]: formation of regular structures with a sinusoidal shape was observed | degradation of full-length BCL6 reporter (eGFPBCL6^FL) [6]: induced degradation of the full-length BCL6 reporter
